Measured values from PMC5640650, “NatD promotes lung cancer progression by preventing histone H4 serine phosphorylation to activate Slug expression” (Nature Communications, 2017).

How the values were obtained:
Type in all cases: cell-based, human
[1] = test system: H1299 cells; test: Transwell migration and invasion assay, H1299 cells; conditions: 12 h, knockdown vs Scr
Source text: Fig. 2 NatD is required for lung cancer cell migration and invasion in vitro. a Quantitative real-time PCR analysis of NatD mRNA levels normalized to GAPDH in scrambled control cells (Scr) and NatD-KD1 and NatD-KD2 cells. Results are shown as mean ± s.d. from three independent experiments. Two-tailed Student’s t-test was used. **P < 0.01 compared to Scr control. b Western blot analysis of NatD and Nt-ac-H4 protein levels in scrambled, NatD-KD1, and NatD-KD2 cells. GAPDH and histone H4 served as loading controls. […] Wound healing assay results are quantified in the histogram (right panel). […] Cell migration and invasion are expressed as a percentage of control (bottom panel). […]
Fig. 5 Regulation of Slug by NatD is acetyltransferase activity-dependent. a (left) In vitro acetylation assay showing the catalytic activity of NatDΔ and wild-type NatD (CPM, counts per minute). […] (bottom) Histones shown by Coomassie blue staining. d Quantitative real-time PCR analysis of mRNA levels of Slug, E-cadherin, N-cadherin, and Vimentin normalized to GAPDH in H1299 cells overexpressing NatDΔ or wild-type NatD. […] Cell migration and invasion are expressed as a percentage of control (bottom panel). […]
The in vitro viability of H1299 cells was assessed using the Cell Counting Kit-8 (CCK-8, Dojindo, Japan) according to the manufacturer’s protocol. […]

[2] = test system: A549 cells; test: Transwell migration and invasion assay, A549 cells; conditions: vs Scr
Experimental: The in vitro viability of H1299 cells was assessed using the Cell Counting Kit-8 (CCK-8, Dojindo, Japan) according to the manufacturer’s protocol. Flow cytometric analysis of apoptosis was assessed by Annexin V and PI staining using the Annexin V-APC Apoptosis Detection Kit (KeyGEN BioTECH, China) according to the manufacturer’s guide. For cell cycle analysis, cells were harvested and fixed at 4 °C overnight with 70% ethanol. Cells were washed twice with PBS, and their DNA was stained using a Cell Cycle Detection Kit (KeyGEN BioTECH, China). The samples were analyzed by flow cytometry (Becton Dickinson, NJ, USA), and results were analyzed with FlowJo software according to the manufacturer’s instructions. For the wound healing assay, cells were plated to confluence in a 6-well plate, and the cell monolayer was scratched using a pipette tip. Representative photos were taken using a digital camera mounted on an inverted microscope (Olympus) at indicated times. Live cell imaging was performed using the HoloMonitor M4 time-lapse cytometer (Phase Holographic Imaging, Sweden). […]
of A549 cells. […] (bottom) Quantification of cell migration and invasion expressed as a percentage of Scr control; mean ± s.d. from three independent experiments; two-tailed Student’s t-test, **P<0.01 compared to Scr control. […]

[3] = test system: H1299 cells; test: Time-lapse cell-tracking, H1299 cells; conditions: HoloMonitor M4, vs Scr
Source text: Fig. 2 NatD is required for lung cancer cell migration and invasion in vitro. a Quantitative real-time PCR analysis of NatD mRNA levels normalized to GAPDH in scrambled control cells (Scr) and NatD-KD1 and NatD-KD2 cells. Results are shown as mean ± s.d. from three independent experiments. Two-tailed Student’s t-test was used. **P < 0.01 compared to Scr control. b Western blot analysis of NatD and Nt-ac-H4 protein levels in scrambled, NatD-KD1, and NatD-KD2 cells. GAPDH and histone H4 served as loading controls. Blots are representative of three independent experiments. c Representative images from wound healing assay of scrambled, NatD-KD1, and NatD-KD2 cells from three independent experiments (left panels). Wound healing assay results are quantified in the histogram (right panel). […] Cell migration and invasion are expressed as a percentage of control (bottom panel). […]
The in vitro viability of H1299 cells was assessed using the Cell Counting Kit-8 (CCK-8, Dojindo, Japan) according to the manufacturer’s protocol. Flow cytometric analysis of apoptosis was assessed by Annexin V and PI staining using the Annexin V-APC Apoptosis Detection Kit (KeyGEN BioTECH, China) according to the manufacturer’s guide. […] The samples were analyzed by flow cytometry (Becton Dickinson, NJ, USA), and results were analyzed with FlowJo software according to the manufacturer’s instructions. […]

| Substance | migratory and invasive capabilities (transwell) [1] | cell migration and invasion (transwell) [2] | random motility [3] |
| --- | --- | --- | --- |
| NatD-KD2: Human NatD shRNA KD2: 5′-GGTTGAATGTCTCCATTGA-3′, lentiviral (shRNA lentiviral) | significantly reduced | inhibits cell migration and invasion | lower random motility |
| NatD-KD1: Human NatD shRNA KD1: 5′-GATGAAGAAGGTTATGTTA-3′, lentiviral (shRNA, lentiviral) | significantly reduced | inhibits cell migration and invasion | lower random motility |
